Experimental data as given in patent publication US20250074946A1, “USE OF SE-DR AFFINITY PEPTIDE IN PREPARING DRUG FOR TREATING RHEUMATIC DISEASE” (HEBEI FITNESS BIOTECHNOLOGY CO., LTD., priority 2021, published 2025).
Where no end group is shown, it is not given here.

Key:
CIA rats [1] = test: CIA rat model: inflammation score AUC and peripheral blood T-cell subtypes (Example 3); type: in vivo; details: 0.2 mmol
Protocol: Collagen-induced arthritis (CIA) model was established by intradermal injection of the emulsion formulated using type II bovine collagen (CII) together with incomplete Freund's adjuvant (IFA) into the tail head of a female Lewis rat. After the model establishment, the morphological changes of rats' four paws were examined every day. […] Except for the model group, the dosage of polypeptide was all set as 0.2 mmol. A control group was also set up, in which the drug was injected into the tail vein once every other day for […]. The area under the curve (AUC) of the inflammation score was used for the efficacy analysis from the day the rats were enrolled, once every other day, until the end of administration.

CIA rats [2] = type: in vivo, rat
Text: Female Lewis rats were used to establish CIA model. Methods: The rats were immunized by intradermal injection with the emulsion prepared by bovine C II and IFA at the tail head. After 7 days, the rats were boosted once with the same method. Thereafter, the morphological changes of the four paws of the rats were examined every day. […] Another 8 female Lewis rats were not subjected to model establishment and set as the control group. PBS was administrated to both the model group and the control group. […] The inflammation scores of the four paws of the rats in each group were evaluated during the administration (once every other day), and the area under the curve (AUC) of the inflammation score was calculated during the administration. During drug discontinuation, the inflammation scores of the four paws of the rats in each group were continuously evaluated (once every other day), and the rats were sacrificed on day 22 after drug discontinuation. HE staining was performed on the ankle joint for tissue injury evaluation. The specific scoring criteria were as follows: 0=normal synovial tissue; 1=synovial hyperplasia and inflammatory cell infiltration; 2=pannus formation and cartilage erosion; 3=destruction of most of the cartilage with subchondral bone erosion; 4=loss of joint integrity, ankylosis.

[3] = tested on: CIA rats with latent tuberculosis infection
[4] = peripheral blood, […] after end of administration, flow cytometry

FKGEQAGAGE [APL2]
Inflammation score and area under the time curve (AUC) (CIA rats [1]; female Lewis CIA rats, tail vein once every other day for 15 days): 52.37 ± 33.69
Th1 (%) (CIA rats [1]; [4]): 0.16 ± 0.09 %
Th2 (%) (CIA rats [1]; [4]): 4.53 ± 0.50 %
Th17 (%) (CIA rats [1]; [4]): 0.87 ± 0.09 %
Treg (%) (CIA rats [1]; [4]): 5.52 ± 0.68 %
inflammation score during drug discontinuation compared with that at the time of drug discontinuation (CIA rats [2]; 21 days of observation after stopping at day 21): could maintain the therapeutic effect
Pathological score during 21 days of drug discontinuation (CIA rats [2]; HE staining of ankle joint, score 0-4): 1.93 ± 0.58
AUC, during drug discontinuation (day 22-42) (CIA rats [2]; inflammation score AUC after stopping administration at day 21): 42.86 ± 31.21
Incidence of infection in rats (CIA rats [2]; rat, in vivo): 0%
Observation on the daily state of rats (CIA rats [2]; rat, in vivo): No
Observation on the daily condition of rats ([3]; during administration): No abnormality
Tuberculosis recurrence rate ([3]; peptides 0.2 mmol, adalimumab 1 mg/kg, 21 days): 0%
Inflammation score and area under the time curve (AUC) ([3]; peptides 0.2 mmol, adalimumab 1 mg/kg, tail i.v. once every other day for 21 days): 48.03 ± 31.91
Culture of MTB from lungs and spleens of rats at sacrifice ([3]; sacrifice on day 22, peptides 0.2 mmol, adalimumab 1 mg/kg): Negative
